Reference: article PMC2970562, “High-Affinity Inhibitors of Human NAD^+-Dependent 15-Hydroxyprostaglandin Dehydrogenase: Mechanisms of Inhibition and Structure-Activity Relationships” (PLoS ONE, 2010)

Columns and labels:
human 15-PGDH [1] = molecular target: T1, human 15-PGDH (Homo sapiens, UniProt P15428); assay: qHTS and 24-point re-test: fluorescence assay of NAD+ reduction to NADH on PGE2 oxidation (PubChem AID 894); format: biochemical; conditions: potency in 24-point titrations on re-test, 20 nM 15-PGDH, 1 mM NAD+, 30 µM PGE2, pH 8.0; for IC50: read-out: qHTS IC50
T1 construct: comprising residues 3–256 of the human HPGD gene (GenBank identifier: 1203982); His6 (GHHHHHH, behind the TEV site) (C, cleaved yes); made in house; host or cells: E. coli BL21(DE3)-R3
T1 sequence (P15428 3-256): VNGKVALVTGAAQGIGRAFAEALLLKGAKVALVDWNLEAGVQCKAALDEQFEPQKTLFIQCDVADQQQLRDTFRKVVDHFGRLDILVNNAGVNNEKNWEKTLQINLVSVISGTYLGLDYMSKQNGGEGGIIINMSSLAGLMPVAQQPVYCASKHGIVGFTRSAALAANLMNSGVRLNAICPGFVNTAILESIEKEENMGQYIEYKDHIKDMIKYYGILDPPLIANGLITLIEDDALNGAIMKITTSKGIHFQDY
Procedure: The assay was miniaturized to a 4-µL volume in 1536-well format: enzyme (3 µL) was dispensed first, followed by a pintool transfer of library compounds dissolved in DMSO. After equilibration, a substrate dispense (1 µL) initiated the enzymatic reaction (see Materials and Methods, for detailed protocol description). […] Hits associated with low-efficacy (<40% maximum inhibition), incomplete curves, as well as those displaying only a single-point inhibition at the top concentration tested were eliminated from further consideration. Similarly, the collection of real-time kinetic data allowed the autofluorescence of each compound to be evaluated by comparing the initial fluorescence read at top concentration with the mean value of uninhibited assay controls: compounds whose top-concentration initial well fluorescence exceeded six standard deviations over the mean were flagged as potential autofluorescent artifacts, [28] (see example in supplementary information Figure S1E). The complete screening and followup results are available in PubChem (PubChem Assay ID 894).
The enzymatic reaction was performed in 50 mM Tris-HCl pH 8.0, containing 0.01% Tween 20. […] The high-throughput screen was performed on a fully integrated robotic system (Kalypsys Inc, San Diego, CA) as described elsewhere. Library compounds, arrayed as seven-point inter-plate concentration series, were screened from the lowest (3.5 nM) to the highest (57.5 µM) concentration, with plates containing DMSO only, serving to note any systematic drifts in the signal, interspersed evenly throughout the screen (approximately every 50 plates). Briefly, 3 µL of reagents were dispensed into 1536-well Greiner black solid-bottom assay plates using integrated nanoliter solenoid-technology dispensers. Compounds and controls (23 nL) were transferred via Kalypsys pintool equipped with 1,536-pin array (10-nL slotted pins; V&P Scientific, Palo Alto, CA). After a 15-minute incubation (to allow for interaction between compound and enzyme), a 1-µL substrate addition step initiated the reaction. Kinetic data were collected on a ViewLux High-throughput CCD imager (Perkin-Elmer) equipped with standard UV fluorescence optics (exc. 340 nm, em. 450 nm).
Starting fluorescence intensity and the change in fluorescence over the two-minute initial rate period were recorded for every well. Screening data were normalized against no-enzyme (64 wells, columns 3 and 4) and no-compound (32 wells located in column 1) controls, and concentration-response relationships were derived as described previously. A four-parameter Hill equation [47] was fitted to the concentration-response data using publicly available algorithms (http://www.ncgc.nih.gov/pub/openhts/curvefit/).

human 15-PGDH [2] = molecular target: T1, human 15-PGDH; assay: Substrate (PGE2) and cofactor (NAD+) titrations, mechanism of action, global fitting; format: biochemical
Procedure: Kinetic studies were performed in 100 mM Tris buffer pH 8.0, containing 0.01% Tween-20 and 10 nM 15-PGDH enzyme. […] All inhibitor compounds were dissolved in 10% (v/v) DMSO at varying concentrations from which they were applied at 1∶5 ratio (resulting in a final concentration of 2% (v/v) DMSO in all assays). For each experiment an aliquot of purified enzyme was thawed freshly and pre-diluted to 10 µM in buffer I (5 mM Tris/HCl, pH 8.0, 150 mM NaCl, 0.01% Tween-20). All experiments were performed in white 384-well PCR microplates (Bio-Rad Laboratories, Inc.) in final assay volumes of 20 µL. Twelve-point compound titrations were set up from serially diluted stock solutions in 10% (v/v) DMSO. […] The initial rates recorded in compound titrations were plotted against -log[compound], and non-linear regression (Levenberg-Marquardt) fitting of the dose-response curve to the Hill equation [47] was performed to derive the IC50, using PRISM 5.0 (GraphPad Software, Inc.). For substrate/cofactor titrations, curves with initial rates plotted against the concentration of substrate or cofactor were fitted to the Michaelis-Menten equation, to derive maximal activities, V max, and Michaelis constants, K m. Fitting qualities were judged from the goodness of fit (R^2>0.98).

human 15-PGDH [3] = molecular target: T1, human 15-PGDH; assay: Differential scanning fluorimetry (DSF), thermal stabilization; format: binding; conditions: for increase of stability by cofactor: versus ligand-free 15-PGDH
Procedure: A correlation between the ΔTm and the inhibitory potency has been shown in a number of protein-ligand systems, particularly for kinases [32]–[34].
Studies to assess the thermal stability of human 15-PGDH in presence of compounds were performed as described previously, with variations. Briefly, the protein was diluted to a final assay concentration of 1 µM in 100 mM Tris buffer pH 8.0, containing 0.01% Tween-20 and 1∶1000 SYPRO orange dye (Invitrogen). […] Compounds were added at a ratio of 1∶5 from appropriate stock solutions in 10% (v/v) DMSO to comprise either 50 or 250 µM final concentrations. Heat denaturation curves were recorded using a RT-PCR instrument (Mx3005p, Agilent) applying a temperature gradient of 2°C/min. […] 2.5 (ftp://ftp.sgc.ox.ac.uk/pub/biophysics) and PRISM 5.0 (GraphPad Software, Inc.).

[4] = substrate, absence of inhibitor
[5] = cofactor, absence of inhibitor, 30 µM PGE2

| SMILES | IC50 (human 15-PGDH [1]) [nM] | further results |
| --- | --- | --- |
| CC1=NOC(=O)C1=Cc1ccc(-c2cc(Cl)ccc2Cl)o1 [Compound 62] | 447 | – |
| O=C(COc1ccc(F)cc1Cl)Nc1cccc(C(=O)NC2CC2)c1 [Compound 63] | 447 | – |
| Cc1c(Cl)cccc1NC(=O)CNC(=O)c1cncn1-c1ccc(F)cc1 [Compound 38] | – | qHTS IC50 [nM] (human 15-PGDH [1]): Inactive |
| COCCNC(=O)C1CSC(c2ccccc2)N1C(=O)c1ccc(OC)c(OC)c1 (centres unmarked) [Compound 28] | – | qHTS IC50 [nM] (human 15-PGDH [1]): inactive |
| Fc1ccccc1-c1nnc(SCCc2ccncc2)n1C1CC1 [Compound 24] | – | qHTS IC50 [nM] (human 15-PGDH [1]): Inactive |
| C=C[C@@]1(C)CCCC[C@H]1CC#CCCCC [Compound 15] | 63 | – |
| Cc1ccc(CN(c2ccc(C(=O)N3CCc4ccccc4C3)cc2)S(C)(=O)=O)cc1 [Compound 26] | 11200 | – |
| FC(F)(F)c1ccc(-c2nnco2)cc1 [Compound 73] | 126 | – |
| CCNC(=O)c1ccc(CSc2ccc(Cl)cc2)cc1 [Compound 74] | 3980 | – |
| CCCCC[C@H](O)/C=C/[C@H]1[C@H](O)CC(=O)[C@@H]1C/C=C\CCCC(=O)O [PGE2, 15-hydroxyprostaglandin type-E2, reference compound] | – | catalytic efficiency, k cat/K m (human 15-PGDH [2]; PGE2, absence of inhibitor): 2.5·10^6; catalytic constant, k cat (human 15-PGDH [2]; oxidation of PGE2, absence of inhibitor): about 14 per second; Titration of PGE2 K m (human 15-PGDH [2]; [4]): 5.5 ± 0.6 µM; Titration of PGE2 V max[µmol/(min×mg)] (human 15-PGDH [2]; [4]): 28.1 µmol/min/mg; Titration of PGE2 k cat/K m[×10^6] (human 15-PGDH [2]; [4]): 2.5 ×10^6; Titration of PGE2 k cat[1/sec] (human 15-PGDH [2]; [4]): 13.6 ± 0.3 s⁻¹; ΔTm in the presence of NAD+ (human 15-PGDH [3]): 2.4 °C; ΔTm in the presence of NADH (human 15-PGDH [3]): no stabilization; stabilization without cofactor (human 15-PGDH [3]; in words): failed to stabilize |
| Cc1ccc(-c2nc3c4cnn(-c5cccc(Cl)c5)c4ncn3n2)cc1 [Compound 25] | 12600 | – |
| O=C(C=Cc1ccco1)Nc1cc(Cl)c(O)c(Cl)c1 [Compound 43] | 398 | – |
| CC(=O)Nc1ccc(NC(=O)CSc2nc3c(cc2C#N)CCC3)cc1 [Compound 10] | 282 | – |
| CC(C)CC=NCCCCCCN=CCC(C)C [Compound 83] | 1260 | – |
| CCNC(=S)NN=Cc1cccn1-c1ccccc1 [Compound 33] | – | qHTS IC50 [nM] (human 15-PGDH [1]): inactive |
| Cc1ccc(NC(=O)COc2cccc(C=C(C#N)C(=O)Nc3cccc(Cl)c3C)c2)cc1C [Compound 77] | 14100 | – |
| NC(=O)c1ccc[n+]([C@@H]2O[C@H](COP(=O)([O-])OP(=O)(O)OC[C@H]3O[C@@H](n4cnc5c(N)ncnc54)[C@H](O)[C@@H]3O)[C@@H](O)[C@H]2O)c1 [NAD^+] | – | Titration of NAD^+ K m (human 15-PGDH [2]; [5]): 15.8 ± 0.9 µM; Titration of NAD^+ V max [µmol/(min×mg)] (human 15-PGDH [2]; [5]): 21.2 µmol/min/mg; Titration of NAD^+ k cat/K m[×10^6] (human 15-PGDH [2]; [5]): 0.7 ×10^6; Titration of NAD^+ k cat[1/sec] (human 15-PGDH [2]; [5]): 10.3 ± 0.1 s⁻¹; increase of stability by cofactor (human 15-PGDH [3]; pH 8.0): more than 4 °C |
| CC1CCN(C(=O)CCc2ccc(Oc3cc([N+](=O)[O-])cc([N+](=O)[O-])c3)cc2)CC1 [Compound 22] | 891 | – |
| COc1ccc(OC)c(NC(=O)Cc2cc(Cl)ccc2OC)c1 [Compound 69] | 562 | – |
| CC1=NOC(=O)C1=Cc1ccc(-c2ccc(Cl)cc2)o1 [Compound 64] | 1120 | – |
| COc1ccc(OC)c(C=Cc2ccc(N3C(=O)C4CC=C5C(c6cc(Br)c(O)c(OC)c6)C6=C(CC5C4C3=O)C(=O)C=C(C)C6=O)cc2)c1 (centres unmarked) [Compound 27] | 15800 | – |
| COC(=O)CN(C)C(=O)c1cc(Cl)c(OCC(C)C)c(OC)c1 [Compound 21] | 398 | – |
| O=C(O)c1cccc(Oc2cc(Cl)cc(Cl)c2)c1 [Compound 51] | 6310 | – |
| CCCCc1ccc(NC(=O)C2=CN3CCS(=O)(=O)N=C3C=C2)cc1 [Compound 67] | 398 | – |
| N#Cc1c(NC(=O)COC(=O)C23CC4CC(CC(C4)C2)C3)sc2c1CCCCC2 [Compound 75] | 2510 | – |
| COc1ccc(C(=O)c2ccccc2O)c(O)c1 [Compound 85] | 1000 | – |
| NC(=O)C1=CN([C@@H]2O[C@H](COP(=O)(O)OP(=O)(O)OC[C@H]3O[C@@H](n4cnc5c(N)ncnc54)[C@H](O)[C@@H]3O)[C@@H](O)[C@H]2O)C=CC1 [NADH, reference compound] | – | Tm of 15-PGDH in the presence of cofactor (human 15-PGDH [3]; pH 8.0, ligand-free Tm 41.2±0.3°C): 52.5±0.4 °C; increase of stability by cofactor (human 15-PGDH [3]; pH 8.0): more than 10 °C |
| COc1ccc(NC(=O)c2sccc2S(=O)(=O)N2CCCCC2)c(OC)c1 [Compound 41] | 5010 | – |
